The values that follow are results of earlier work, collected in patent US20220160649A1, “PHARMACEUTICAL COMPOSITION” (priority 2019, published 2022).

The structures appear in SMILES notation.

The conditions of the data set: stated as well known.

For the compound `Oc1ccc(/C=C/c2cc(O)cc(O)c2)cc1` [resveratrol (IIIA), resveratrol], the solubility in water entry is “almost insoluble”.
